The values below come from patent US6613770B1, “Quinoline derivatives as NK-2 and NK-3 receptor ligands” (SmithKline Beecham S.p.A., priority 1998, dated 2003).

Where a name gives a salt, the structure may show the parent alone.

`O=C(N[C@H]1CCCc2ccccc21)c1c(CN2CCC(N3CCC(O)CC3)CC2)c(-c2ccccc2)nc2ccccc12` [Example 5, 3-(4-Hydroxy-[1,4′]bipiperidinyl-1′-ylmethyl)-2-phenyl-quinoline-4-carboxylic acid ((S)-1,2,3,4-tetrahydro-naphthalen-1-yl)-amide] showed a melting point of 144 to 146 °C. In turn, `C[C@H](NC(=O)c1c(CN2CCOCC2)c(-c2ccccc2)nc2ccccc12)C(C)(C)C` [Example 7, 3-Morpholin-4-ylmethyl-2-phenyl-quinoline-4-carboxylic acid ((S)-1,2,2-trimethyl-propyl)-amide] came in with a melting point of 207 to 209 °C.

`O=C(NC1C2CC3CC(C2)CC1C3)c1c(CN2CCC(N3CCCCC3)CC2)c(-c2ccccc2)nc2ccccc12` (centres unmarked) [Example 10, 3-[1,4′]Bipiperidinyl-1′-ylmethyl-2-phenyl-quinoline-4-carboxylic acid adamantan-2-ylamide] showed a melting point of 219 to 220 °C. The figure for `CC(C)N1CCN(Cc2c(-c3ccccc3)nc3ccccc3c2C(=O)NC2CCCCC2)CC1` [Example 11, 3-(4-Isopropyl-piperazin-1-ylmethyl)-2-phenyl-quinoline-4-carboxylic acid cyclohexylamide] is 161 to 163 °C.

In turn, `CC(C)NC(=O)c1c(CN2CCN(C(C)C)CC2)c(-c2ccccc2)nc2ccccc12` (as salt: HCl) [Example 3, 3-(4-Isopropyl-piperazin-1-ylmethyl)-2-phenyl-quinoline-4-carboxylic acid isopropylamide] yielded a melting point of 198 to 200 °C.

With `CCC(CC)NC(=O)c1c(CN2CCN(C(C)C)CC2)c(-c2ccccc2)nc2ccccc12` (as salt: HCl) [Example 4, 3-(4-Isopropyl-piperazin-1-ylmethyl)-2-phenyl-quinoline-4-carboxylic acid (1-ethyl-propyl)-amide], the melting point was 235 to 238 °C.

On to `CC(C)CNC(=O)c1c(CN2CCN(C(C)C)CC2)c(-c2ccccc2)nc2ccccc12` [Example 2, 3-(4-Isopropyl-piperazin-1-ylmethyl)-2-phenyl-quinoline-4-carboxylic acid isobutyl-amide], for which the melting point fell in the range of 215 to 217 °C. To `O=C(N[C@H]1CCc2ccccc21)c1c(CN2CCC(N3CCC(O)CC3)CC2)c(-c2ccccc2)nc2ccccc12` [Example 6, 3-(4-Hydroxy-[1,4′]bipiperidinyl-1′-ylmethyl)-2-phenyl-quinoline-4-carboxylic acid (S)-indan-1-ylamide] belongs 98 to 100 °C.

For orientation: melting point means the temperature, or range, at which the solid turns liquid.
